Substitutions are numbered along the chain they refer to. Names and notes keep the numbering of the source.

One series is filed under the species Rattus norvegicus. Kind of series: Activity of wild type MDD in rat liver.
The nature of series [1]: Inhibition of rat MDD.
Substrate in series [2]: C[C@@](O)(CCOP(=O)(O)OP(=O)(O)O)CC(=O)O
Kind of series: (§1) Activity of MDD K27A mutant. To be noted: Rattus norvegicus.

Substrate in series [3]: Nc1ncnc2c1ncn2[C@@H]1O[C@H](COP(=O)(O)OP(=O)(O)OP(=O)(O)O)[C@@H](O)[C@H]1O
Described as §1. To be noted: Rattus norvegicus.

Substrate in series [4]: C[C@@](O)(CCOP(=O)(O)OP(=O)(O)O)CC(=O)O
The series is described as follows: (§2) Activity of MDD R154A mutant. To be noted: Rattus norvegicus.

Substrate in series [5]: Nc1ncnc2c1ncn2[C@@H]1O[C@H](COP(=O)(O)OP(=O)(O)OP(=O)(O)O)[C@@H](O)[C@H]1O
The series is described as §2. To be noted: Rattus norvegicus.

As to `C[C@@](O)(CCOP(=O)(O)OP(=O)(O)O)CC(=O)O`, in the series listed under Rattus norvegicus, the Michaelis-Menten constant (Km) stood at 36 µM and the maximal velocity (Vmax) worked out at 6.6 µmol/min/mg.

Consider `CCC(O)(CCOP(=O)(O)OP(=O)(O)O)C(F)C(=O)O` (stereo unspecified), for which the midpoint of inhibition in series [1], the IC50, lay at 20 µM.

Turning to `CC(O)(CCOP(=O)(O)OP(=O)(O)O)Cc1ccccc1` (stereo unspecified), the IC50 in series [1] came out at 140 µM. For `CCC(C)(O)CCOP(=O)(O)OP(=O)(O)O` (stereo unspecified), 80 µM corresponded to half-maximal inhibition in series [1] (IC50). Take `Nc1ncnc2c1ncn2[C@@H]1O[C@H](COP(=O)(O)OP(=O)(O)OP(=O)(O)O)[C@@H](O)[C@H]1O`: the Michaelis-Menten constant (Km) in the series filed under Rattus norvegicus came out at 530 µM.

For the molecule `CC(O)(CCOP(=O)(O)OP(=O)(O)O)C(F)(F)C(=O)O` (stereo unspecified), in series [1], half-maximal inhibition (IC50) was put at 7.5 µM.

Molecule `CC(C)(O)CCOP(=O)(O)OP(=O)(O)O` had an IC50 in series [1] of 60 µM. Same read-out and setting: under `CC(O)(CCF)CCOP(=O)(O)OP(=O)(O)O` (stereo unspecified) stands 50 µM; under `CCCC(C)(O)CCOP(=O)(O)OP(=O)(O)O` (stereo unspecified), 120 µM.

B1: Diphosphomevalonate decarboxylase (Rattus norvegicus), Q62967 K27A (protein)
chain: MASEKPQDLMVTCTAPVNIAVIKYWGARDEALILPINPSLSVTLHQDQLKTTTTAAISKDFTEDRIWLNGREEDVGQPRLQACLREIRRLARKRRSTGDGDALPLSLGYKVHVASVNNFPTAAGLASSAAGYACLAYTLARVYGVEGDLSEVARRGSGSACRSLYGGFVEWQMGEQADGKDSIARQIAPEWHWPQLRVLILVVSAEKKPTGSTVGMQTSVATSTLLKFRAESIVPERMKEMTRCIQEQDFQAFAQLTMKDSNQFHATCLDTFPPISYLNDTSRRIIQLVHRFNAHHGQTKVAYTFDAGPNAVIFTLEDTVAEFVAAVRHSFPPAANGDKFLKGLQVAPVLLSDELKTSLATEPSPGGVQYIIATQVGPGPQVLDDPHHHLLGPDGLPQRDL
For the molecule B1, in series [2], the Km came out at 750 µM and the maximum rate (Vmax) amounted to 0.14 µmol/min/mg. Moreover, in series [3], the Km is 1870 µM.

B2: Diphosphomevalonate decarboxylase (Rattus norvegicus), Q62967 R154A (protein)
chain: B1 chain with A27K, R154A
As to B2, in series [4], the Km came to 920 µM and the maximal velocity (Vmax) was determined as 0.34 µmol/min/mg. Further, in series [5], the Michaelis constant (Km) is 1400 µM.

By Km is commonly meant the concentration of substrate that gives half-maximal velocity. Usually Vmax stands for the rate approached at saturating substrate. One may read the IC50 as the concentration at which inhibition is half-maximal.
